The results in this text go back to patent publication US11459324B2, “O-glycoprotein-2-acetamido-2-deoxy-3-D-glycopyranosidase inhibitors” (BIOGEN MA INC., priority 2018, dated 2022).

Bounds are passed on as bounds.

The target of this assay is T1, Recombinant full length human OGA enzyme (Homo sapiens, UniProt O60502).
T1 construct: Recombinant full length human OGA enzyme was purchased from Origene; purchased Origene
T1 sequence (O60502 1-916): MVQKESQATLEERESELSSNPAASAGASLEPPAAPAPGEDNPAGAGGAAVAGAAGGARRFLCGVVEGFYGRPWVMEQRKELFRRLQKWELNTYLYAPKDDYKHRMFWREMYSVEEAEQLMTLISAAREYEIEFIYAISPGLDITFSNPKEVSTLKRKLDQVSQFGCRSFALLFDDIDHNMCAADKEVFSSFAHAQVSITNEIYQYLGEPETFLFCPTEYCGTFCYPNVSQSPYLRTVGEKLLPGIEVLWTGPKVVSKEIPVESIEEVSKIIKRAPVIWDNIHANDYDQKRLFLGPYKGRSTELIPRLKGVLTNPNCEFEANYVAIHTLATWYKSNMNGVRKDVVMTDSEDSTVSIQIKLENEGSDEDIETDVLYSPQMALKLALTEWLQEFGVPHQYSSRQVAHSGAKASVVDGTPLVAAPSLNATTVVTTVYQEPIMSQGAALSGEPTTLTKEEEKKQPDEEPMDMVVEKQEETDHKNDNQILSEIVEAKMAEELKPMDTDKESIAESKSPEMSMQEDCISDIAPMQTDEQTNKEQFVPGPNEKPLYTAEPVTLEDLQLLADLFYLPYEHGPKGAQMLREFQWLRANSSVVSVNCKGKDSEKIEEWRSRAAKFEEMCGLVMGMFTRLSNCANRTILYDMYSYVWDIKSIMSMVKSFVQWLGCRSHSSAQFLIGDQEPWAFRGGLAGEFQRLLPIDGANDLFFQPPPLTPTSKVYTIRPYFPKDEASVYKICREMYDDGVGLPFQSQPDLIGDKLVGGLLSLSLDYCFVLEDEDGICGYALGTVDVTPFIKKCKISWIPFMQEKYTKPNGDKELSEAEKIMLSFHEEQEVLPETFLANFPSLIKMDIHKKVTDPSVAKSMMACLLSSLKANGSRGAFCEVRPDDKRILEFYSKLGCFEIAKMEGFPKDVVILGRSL
Briefly: OGA Enzyme Inhibition Biochemical Assay. The note with it: 1 nM OGA, 100 μM 4-MUGlcNAc (Km), pH 6.4, 90 minutes at room temperature, 10-point dose-response from 20 μM. Summed up: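 Full-length human OGA at 1 nM with 100 μM 4-MUGlcNAc (Km) in McIlvaine buffer pH 6.4 plus 0.01% BSA, 90 min at room temperature, then glycine pH 10 quench. Fluorescence read at Ex 355/Em 460 nm. 10-point, 4-fold dose-response from 20 μM, 4-parameter variable-slope fit.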
As to `CC(=O)Nc1ncc(CN2CCC[C@H](Cc3ccc(C(F)F)cn3)C2)s1` [Example 3-5, (R)-N-(5-((3-((5-(difluoromethyl)pyridin-2-yl)methyl)piperidin-1-yl)methyl)thiazol-2-yl)acetamide], the IC50 turned out to be 2 nM.

`COc1ccnc(CC2CCCN(Cc3cnc(NC(C)=O)s3)C2)c1` (stereo not shown) [Example 1-9, N-(5-((3-((4-methoxypyridin-2-yl)methyl)piperidin-1-yl)methyl)thiazol-2-yl)acetamide]: the concentration for half-maximal inhibition (IC50) stood at 12 nM.

Consider `CC(=O)Nc1ncc(CN2C[C@H](Cc3ncc(F)cn3)C[C@H]2C)s1` (single isomer, unassigned) [Example 2-20], for which the IC50 is 1 nM.

Consider `CC(=O)Nc1ncc(CN2CCCC(Cc3cncc(F)c3)C2)s1` (stereo not shown) [Example 1-12, N-(5-((3-((5-fluoropyridin-3-yl)methyl)piperidin-1-yl)methyl)thiazol-2-yl)acetamide], for which the IC50 came out at 7 nM.

In the case of `CC(=O)Nc1ncc(CN2CCCC(Cc3nnc4ccccn34)C2)s1` (stereo not shown) [Example 4-23, N-(5-((3-([1,2,4]triazolo[4,3-a]pyridin-3-ylmethyl)piperidin-1-yl)methyl)thiazol-2-yl)acetamide], the IC50 was determined as 27 nM.

Turning to `CC(=O)Nc1ncc(CN2CCCC(Cc3cccc(F)c3)C2)s1` (stereo not shown) [Example 1-5, N-(5-((3-(3-fluorobenzyl)piperidin-1-yl)methyl)thiazol-2-yl)acetamide], the IC50 was 62 nM.

For the molecule `CCC(=O)Nc1nc(F)c(CN2CC[C@H](Cc3ncc(F)cn3)C2)s1` [Example 3-27, (R)-N-(4-fluoro-5-((3-((5-fluoropyrimidin-2-yl)methyl)pyrrolidin-1-yl)methyl)thiazol-2-yl)propionamide], the IC50 is 34 nM.

For the molecule `COc1ccnc(CC2CCN(Cc3cnc(NC(C)=O)s3)C2)c1` (stereo not shown) [Example 1-21, N-(5-((3-((4-methoxypyridin-2-yl)methyl)pyrrolidin-1-yl)methyl)thiazol-2-yl)acetamide], the IC50 came to 13 nM.

For the molecule `CC(=O)Nc1nc(F)c(CN2CCC[C@H](Cc3ncc(F)cn3)C2)s1` [Example 3-48, (R)-N-(4-fluoro-5-((3-((5-fluoropyrimidin-2-yl)methyl)piperidin-1-yl)methyl)thiazol-2-yl)acetamide], the IC50 is less than 1 nM.

Turning to `CCc1cc2ncnc(CC3CCCN(Cc4cnc(NC(C)=O)s4)C3)c2s1` (stereo not shown) [Example 1-42, N-(5-((3-((6-ethylthieno[3,2-d]pyrimidin-4-yl)methyl)piperidin-1-yl)methyl)thiazol-2-yl)acetamide], the half-maximal inhibitory concentration (IC50) stood at 2 nM.

Take `CC(=O)Nc1ncc(CN2CC[C@H](Cc3ncc(F)c(C)n3)C2)s1` [Example 3-11, (R)-N-(5-((3-((5-fluoro-4-methylpyrimidin-2-yl)methyl)pyrrolidin-1-yl)methyl)thiazol-2-yl)acetamide]: the half-maximal inhibitory concentration (IC50) came out at 11 nM.

For the molecule `COc1cc(C(C)C2CCN(Cc3sc(NC(C)=O)nc3F)C2)ncn1` (stereo not shown) [Example 2-52, N-(4-fluoro-5-((3-(1-(6-methoxypyrimidin-4-yl)ethyl)pyrrolidin-1-yl)methyl)thiazol-2-yl)acetamide], the IC50 came out at 1.7 nM.

Regarding `CC(=O)Nc1ncc(CN2CCCC(Cn3nc(C)c(C)c3C)C2)s1` (stereo not shown) [Example 4-4, N-(5-((3-((3,4,5-trimethyl-1H-pyrazol-1-yl)methyl)piperidin-1-yl)methyl)thiazol-2-yl)acetamide], the IC50 worked out at 680 nM.

Take `COc1cc(C[C@@H]2CCN(Cc3sc(NC(C)=O)nc3F)C2)ncn1` [Example 3-34, (S)—N-(4-fluoro-5-((3-((6-methoxypyrimidin-4-yl)methyl)pyrrolidin-1-yl)methyl)thiazol-2-yl)acetamide]: the IC50 was 8 nM.

Turning to `COc1cc(C[C@H]2CCCN(Cc3sc(NC(C)=O)nc3F)C2)ccn1` [Example 3-19, (R)-N-(4-fluoro-5-((3-((2-methoxypyridin-4-yl)methyl)piperidin-1-yl)methyl)thiazol-2-yl)acetamide], the IC50 was less than 1 nM.

`CC(=O)Nc1ncc(CN2CCCC(Cc3ccc(C)cn3)C2)s1` (stereo not shown) [Example 1-31, N-(5-((3-((5-methylpyridin-2-yl)methyl)piperidin-1-yl)methyl)thiazol-2-yl)acetamide]: the IC50 is 5 nM.

As to `COc1cc(CC2CCN(Cc3cnc(NC(C)=O)s3)C2)ccn1` (stereo not shown) [Example 1-19, N-(5-((3-((2-methoxypyridin-4-yl)methyl)pyrrolidin-1-yl)methyl)thiazol-2-yl)acetamide], the IC50 turned out to be 10 nM.

On to `CC(=O)Nc1nc(F)c(CN2C[C@@H](Cc3ncc(F)cn3)CC[C@@H]2C)s1` [Example 2-53, N-(4-fluoro-5-(((2S,5R)-5-((5-fluoropyrimidin-2-yl)methyl)-2-methylpiperidin-1-yl)methyl)thiazol-2-yl)acetamide], for which the IC50 worked out at 9.2 nM.

Regarding `CC(=O)Nc1nc(F)c(CN2CC[C@H](Cc3cc(C)nc(C)n3)C2)s1` [Example 3-29, (R)-N-(5-((3-((2,6-dimethylpyrimidin-4-yl)methyl)pyrrolidin-1-yl)methyl)-4-fluorothiazol-2-yl)acetamide], the IC50 stood at 10 nM.

Regarding `CC(=O)Nc1ncc(CN2CCC(Cc3cccc(F)c3)C2)s1` (stereo not shown) [Example 1-16, N-(5-((3-(3-fluorobenzyl)pyrrolidin-1-yl)methyl)thiazol-2-yl)acetamide], the half-maximal inhibitory concentration (IC50) was 270 nM.

On to `CC(=O)Nc1ncc(CN2CCCC(Cc3cncs3)C2)s1` (stereo not shown) [Example 1-37, N-(5-((3-(thiazol-5-ylmethyl)piperidin-1-yl)methyl)thiazol-2-yl)acetamide], for which the IC50 stood at 4 nM.

As to `CC(=O)Nc1ncc(CN2CCCC(C)(Cc3ncc(F)cn3)C2)s1` (stereo not shown) [Example 2-34, N-(5-((3-((5-fluoropyrimidin-2-yl)methyl)-3-methylpiperidin-1-yl)methyl)thiazol-2-yl)acetamide], the IC50 was 450 nM.

With `CCc1cc2c(CC3CCCN(Cc4cnc(NC(C)=O)s4)C3)ncnc2s1` (stereo not shown) [Example 1-41, N-(5-((3-((6-ethylthieno[2,3-d]pyrimidin-4-yl)methyl)piperidin-1-yl)methyl)thiazol-2-yl)acetamide], the IC50 stood at 1 nM.

As for `CC(=O)Nc1ncc(CN2CCCC(Cc3cncc(C)n3)C2)s1` (stereo not shown) [Example 1-33, N-(5-((3-((6-methylpyrazin-2-yl)methyl)piperidin-1-yl)methyl)thiazol-2-yl)acetamide], the IC50 is 4 nM.

For the molecule `COc1cncc(CC2CCCN(Cc3cnc(NC(C)=O)s3)C2)n1` (stereo not shown) [Example 1-32, N-(5-((3-((6-methoxypyrazin-2-yl)methyl)piperidin-1-yl)methyl)thiazol-2-yl)acetamide], the IC50 was 2 nM.

Consider `CC(=O)Nc1ncc(CN2CCCC(Cn3cc(C4CC4)cn3)C2)s1` (stereo not shown) [Example 4-6, N-(5-((3-((4-cyclopropyl-1H-pyrazol-1-yl)methyl)piperidin-1-yl)methyl)thiazol-2-yl)acetamide], for which the IC50 is 540 nM.

Consider `COc1cc(C[C@@H]2C[C@H](C)N(Cc3sc(NC(C)=O)nc3F)C2)ncn1` [Example 3-44, N-(4-fluoro-5-(((2S,4S)-4-((6-methoxypyrimidin-4-yl)methyl)-2-methylpyrrolidin-1-yl)methyl)thiazol-2-yl)acetamide], for which the IC50 is less than 1 nM.

With `COc1cccc(CC2CCCN(Cc3cnc(NC(C)=O)s3)C2)n1` (stereo not shown) [Example 1-6, N-(5-((3-((6-methoxypyridin-2-yl)methyl)piperidin-1-yl)methyl)thiazol-2-yl)acetamide], the IC50 was 2 nM.
